Laboratory results reported in US20230085307A1, “PYRIDAZINONE COMPOUND AND HERBICIDE” (NISSAN CHEMICAL CORPORATION, priority 2019, published 2023).

What was measured:
persian speedwell [1] = assay: Test Example 5: herbicidal effect by foliage application, plastic box (Table 20, symbol R); format: in vivo, Persian speedwell (Veronica persica); settings: foliage application, 320 g/ha, evaluated three weeks after application
Outline: (§1)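 Post-emergence foliar test in sterilized diluvial soil. Compound applied as water-diluted emulsion at a predetermined rate to 14-day-old plants; evaluation at three weeks.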

barnyard grass [2] = assay: Test Example 4: herbicidal effect by soil treatment (Table 19, symbol H); format: in vivo, barnyard grass (Echinochloa crus-galli); settings: amount of applied herbicide 320 g/ha
Outline: (§2)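 Scoring uses the grading scale of an earlier test, three weeks post-application. Treatment consists of spraying a diluted emulsion formulation across the surface of sterilized diluvial soil in which seeds are buried near 1.5 cm deep; boxes are kept in a greenhouse between 25° C. and 30° C.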

green foxtail [3] = assay: Test Example 4: herbicidal effect by soil treatment (Table 19, symbol G); format: in vivo, green foxtail (Setaria viridis); settings: amount of applied herbicide 320 g/ha
Outline: as §2

rice flat sedge = assay: Test Example 3: herbicidal effect by foliage application, Wagner pot (Table 18, symbol E); format: in vivo, rice flat sedge (Cyperus iria); settings: amount of applied herbicide 320 g/ha
Outline: (§3)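 Plants were sown in alluvial soil held under 0.1–0.5 cm standing water and grown 14 days in a greenhouse at 25–30 °C. An emulsifiable formulation, water-diluted to the set dose, was then sprayed onto the foliage, and effects were scored three weeks later using previously defined criteria.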

late watergrass = assay: Test Example 1: herbicidal activity, application before weed generation under submerged conditions (Table 16, symbol A); format: in vivo, late watergrass (Echinochloa oryzicola); settings: 320 g/ha applied herbicide
Outline: (§4)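 Submerged Wagner pots (alluvial soil, 4 cm water) sown with weed seeds and planted with 2.5-leaf rice seedlings; emulsifiable concentrate diluted in water applied to water surface on sowing day. Held in greenhouse at 25-30 °C; injury scored 0-5 by herbicidal rate after three weeks.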

redroot pigweed [4] = assay: Test Example 5: herbicidal effect by foliage application, plastic box (Table 20, symbol N); format: in vivo, redroot pigweed (Amaranthus retroflexus); settings: foliage application, 320 g/ha, evaluated three weeks after application
Outline: as §1

chickweed [5] = assay: Test Example 4: herbicidal effect by soil treatment (Table 19, symbol P); format: in vivo, common chickweed (Stellaria media); settings: amount of applied herbicide 320 g/ha
Outline: as §2

lambsquarters [6] = assay: Test Example 4: herbicidal effect by soil treatment (Table 19, symbol O); format: in vivo, lambsquarters (Chenopodium album); settings: amount of applied herbicide 320 g/ha
Outline: as §2

green foxtail [7] = assay: Test Example 5: herbicidal effect by foliage application, plastic box (Table 20, symbol G); format: in vivo, green foxtail (Setaria viridis); settings: foliage application, 320 g/ha, evaluated three weeks after application
Outline: as §1

Italian ryegrass [8] = assay: Test Example 4: herbicidal effect by soil treatment (Table 19, symbol K); format: in vivo, Italian ryegrass (Lolium multiflorum); settings: amount of applied herbicide 320 g/ha
Outline: as §2

Chinese sprangletop = assay: Test Example 3: herbicidal effect by foliage application, Wagner pot (Table 18, symbol D); format: in vivo, chinese sprangletop (Leptochloa chinensis); settings: amount of applied herbicide 320 g/ha
Outline: as §3

velvetleaf [9] = assay: Test Example 4: herbicidal effect by soil treatment (Table 19, symbol M); format: in vivo, velvetleaf (Abutilon theophrasti); settings: amount of applied herbicide 320 g/ha
Outline: as §2

Japanese bulrush = assay: Test Example 1: herbicidal activity, application before weed generation under submerged conditions (Table 16, symbol B); format: in vivo, Japanese bulrush (Schoenoplectus juncoides); settings: 320 g/ha applied herbicide
Outline: as §4

southern crabgrass [10] = assay: Test Example 4: herbicidal effect by soil treatment (Table 19, symbol F); format: in vivo, southern crabgrass (Digitaria ciliaris); settings: amount of applied herbicide 320 g/ha
Outline: as §2

barnyard grass [11] = assay: Test Example 5: herbicidal effect by foliage application, plastic box (Table 20, symbol H); format: in vivo, barnyard grass (Echinochloa crus-galli); settings: foliage application, 320 g/ha, evaluated three weeks after application
Outline: as §1

windgrass [12] = assay: Test Example 5: herbicidal effect by foliage application, plastic box (Table 20, symbol L); format: in vivo, windgrass (Apera spica-venti); settings: foliage application, 320 g/ha, evaluated three weeks after application
Outline: as §1

lambsquarters [13] = assay: Test Example 5: herbicidal effect by foliage application, plastic box (Table 20, symbol O); format: in vivo, lambsquarters (Chenopodium album); settings: foliage application, 320 g/ha, evaluated three weeks after application
Outline: as §1

barnyard grass [14] = assay: Test Example 3: herbicidal effect by foliage application, Wagner pot (Table 18, symbol H); format: in vivo, barnyard grass (Echinochloa crus-galli); settings: amount of applied herbicide 320 g/ha
Outline: as §3

wild oat [15] = assay: Test Example 5: herbicidal effect by foliage application, plastic box (Table 20, symbol I); format: in vivo, wild oat (Avena fatua); settings: foliage application, 320 g/ha, evaluated three weeks after application
Outline: as §1

windgrass [16] = assay: Test Example 4: herbicidal effect by soil treatment (Table 19, symbol L); format: in vivo, windgrass (Apera spica-venti); settings: amount of applied herbicide 320 g/ha
Outline: as §2

velvetleaf [17] = assay: Test Example 5: herbicidal effect by foliage application, plastic box (Table 20, symbol M); format: in vivo, velvetleaf (Abutilon theophrasti); settings: foliage application, 320 g/ha, evaluated three weeks after application
Outline: as §1

chickweed [18] = assay: Test Example 5: herbicidal effect by foliage application, plastic box (Table 20, symbol P); format: in vivo, common chickweed (Stellaria media); settings: foliage application, 320 g/ha, evaluated three weeks after application
Outline: as §1

wild oat [19] = assay: Test Example 4: herbicidal effect by soil treatment (Table 19, symbol I); format: in vivo, wild oat (Avena fatua); settings: amount of applied herbicide 320 g/ha
Outline: as §2

redroot pigweed [20] = assay: Test Example 4: herbicidal effect by soil treatment (Table 19, symbol N); format: in vivo, redroot pigweed (Amaranthus retroflexus); settings: amount of applied herbicide 320 g/ha
Outline: as §2

oval-leafed pondweed = assay: Test Example 1: herbicidal activity, application before weed generation under submerged conditions (Table 16, symbol C); format: in vivo, oval-leafed pondweed (Monochoria vaginalis); settings: 320 g/ha applied herbicide
Outline: as §4

blackgrass [21] = assay: Test Example 5: herbicidal effect by foliage application, plastic box (Table 20, symbol J); format: in vivo, blackgrass (Alopecurus myosuroides); settings: foliage application, 320 g/ha, evaluated three weeks after application
Outline: as §1

Italian ryegrass [22] = assay: Test Example 5: herbicidal effect by foliage application, plastic box (Table 20, symbol K); format: in vivo, Italian ryegrass (Lolium multiflorum); settings: foliage application, 320 g/ha, evaluated three weeks after application
Outline: as §1

southern crabgrass [23] = assay: Test Example 5: herbicidal effect by foliage application, plastic box (Table 20, symbol F); format: in vivo, southern crabgrass (Digitaria ciliaris); settings: foliage application, 320 g/ha, evaluated three weeks after application
Outline: as §1

blackgrass [24] = assay: Test Example 4: herbicidal effect by soil treatment (Table 19, symbol J); format: in vivo, blackgrass (Alopecurus myosuroides); settings: amount of applied herbicide 320 g/ha
Outline: as §2

persian speedwell [25] = assay: Test Example 4: herbicidal effect by soil treatment (Table 19, symbol R); format: in vivo, Persian speedwell (Veronica persica); settings: amount of applied herbicide 320 g/ha
Outline: as §2

| SMILES | herbicidal effect on R: persian speedwell (criteria 0-5) (persian speedwell [1]) | H: barnyard grass, herbicidal effect rating (barnyard grass [2]) | G: green foxtail, herbicidal effect rating (green foxtail [3]) | herbicidal effect on E: rice flat sedge (rice flat sedge) | Herbicidal effect on A: late watergrass (grade 0-5) (late watergrass) | herbicidal effect on N: redroot pigweed (criteria 0-5) (redroot pigweed [4]) | P: chickweed, herbicidal effect rating (chickweed [5]) | O: lambsquarters, herbicidal effect rating (lambsquarters [6]) | herbicidal effect on G: green foxtail (criteria 0-5) (green foxtail [7]) | K: Italian ryegrass, herbicidal effect rating (Italian ryegrass [8]) | herbicidal effect on D: Chinese sprangletop (Chinese sprangletop) | M: velvetleaf, herbicidal effect rating (velvetleaf [9]) | Herbicidal effect on B: Japanese bulrush (grade 0-5) (Japanese bulrush) | F: southern crabgrass, herbicidal effect rating (southern crabgrass [10]) | herbicidal effect on H: barnyard grass (criteria 0-5) (barnyard grass [11]) | herbicidal effect on L: windgrass (criteria 0-5) (windgrass [12]) | herbicidal effect on O: lambsquarters (criteria 0-5) (lambsquarters [13]) | herbicidal effect on H: barnyard grass (barnyard grass [14]) | herbicidal effect on I: wild oat (criteria 0-5) (wild oat [15]) | L: windgrass, herbicidal effect rating (windgrass [16]) | other results |
| --- | --- | --- | --- | --- | --- | --- | --- | --- | --- | --- | --- | --- | --- | --- | --- | --- | --- | --- | --- | --- | --- |
| CCCC(=O)Oc1c(C)nn(C)c(=O)c1-c1c(-c2ccccc2F)sc2ccc(F)cc12 [2-200] | 4 (Herbicidal rate of 70% or more and less than 90%) | 3 (Herbicidal rate of 40% or more and less than 70%) | 1 (Herbicidal rate of 5% or more and less than 20%) | 5 (Herbicidal rate of 90% or more (almost completely withered)) | 3 (Herbicidal rate of 40% or more and less than 70%) | 5 (Herbicidal rate of 90% or more (almost completely withered)) | 1 (Herbicidal rate of 5% or more and less than 20%) | 4 (Herbicidal rate of 70% or more and less than 90%) | 4 (Herbicidal rate of 70% or more and less than 90%) | 3 (Herbicidal rate of 40% or more and less than 70%) | 5 (Herbicidal rate of 90% or more (almost completely withered)) | 0 (Herbicidal rate of 5% or less (almost no effect)) | 0 (Herbicidal rate of 5% or less (almost no effect)) | 1 (Herbicidal rate of 5% or more and less than 20%) | 3 (Herbicidal rate of 40% or more and less than 70%) | 3 (Herbicidal rate of 40% or more and less than 70%) | 3 (Herbicidal rate of 40% or more and less than 70%) | 4 (Herbicidal rate of 70% or more and less than 90%) | 0 (Herbicidal rate of 5% or less (almost no effect)) | 0 (Herbicidal rate of 5% or less (almost no effect)) | herbicidal effect on M: velvetleaf (criteria 0-5) (velvetleaf [17]): 5 (Herbicidal rate of 90% or more (almost completely withered)); herbicidal effect on P: chickweed (criteria 0-5) (chickweed [18]): 5 (Herbicidal rate of 90% or more (almost completely withered)); I: wild oat, herbicidal effect rating (wild oat [19]): 0 (Herbicidal rate of 5% or less (almost no effect)); N: redroot pigweed, herbicidal effect rating (redroot pigweed [20]): 4 (Herbicidal rate of 70% or more and less than 90%); Herbicidal effect on C: oval-leafed pondweed (grade 0-5) (oval-leafed pondweed): 0 (Herbicidal rate of 5% or less (almost no effect)); herbicidal effect on J: blackgrass (criteria 0-5) (blackgrass [21]): 1 (Herbicidal rate of 5% or more and less than 20%); herbicidal effect on K: Italian ryegrass (criteria 0-5) (Italian ryegrass [22]): 4 (Herbicidal rate of 70% or more and less than 90%); herbicidal effect on F: southern crabgrass (criteria 0-5) (southern crabgrass [23]): 2 (Herbicidal rate of 20% or more and less than 40%); J: blackgrass, herbicidal effect rating (blackgrass [24]): 0 (Herbicidal rate of 5% or less (almost no effect)); R: persian speedwell, herbicidal effect rating (persian speedwell [25]): 3 (Herbicidal rate of 40% or more and less than 70%) |
| CCCC(=O)Oc1c(C)nn(C)c(=O)c1-c1c(-c2cccc(OC)c2)sc2ccc(F)cc12 [2-210] | 5 (Herbicidal rate of 90% or more (almost completely withered)) | 4 (Herbicidal rate of 70% or more and less than 90%) | 4 (Herbicidal rate of 70% or more and less than 90%) | 5 (Herbicidal rate of 90% or more (almost completely withered)) | 3 (Herbicidal rate of 40% or more and less than 70%) | 5 (Herbicidal rate of 90% or more (almost completely withered)) | 4 (Herbicidal rate of 70% or more and less than 90%) | 1 (Herbicidal rate of 5% or more and less than 20%) | 5 (Herbicidal rate of 90% or more (almost completely withered)) | 4 (Herbicidal rate of 70% or more and less than 90%) | 5 (Herbicidal rate of 90% or more (almost completely withered)) | 2 (Herbicidal rate of 20% or more and less than 40%) | 0 (Herbicidal rate of 5% or less (almost no effect)) | 4 (Herbicidal rate of 70% or more and less than 90%) | 4 (Herbicidal rate of 70% or more and less than 90%) | 5 (Herbicidal rate of 90% or more (almost completely withered)) | 4 (Herbicidal rate of 70% or more and less than 90%) | 5 (Herbicidal rate of 90% or more (almost completely withered)) | 0 (Herbicidal rate of 5% or less (almost no effect)) | 0 (Herbicidal rate of 5% or less (almost no effect)) | herbicidal effect on M: velvetleaf (criteria 0-5) (velvetleaf [17]): 5 (Herbicidal rate of 90% or more (almost completely withered)); herbicidal effect on P: chickweed (criteria 0-5) (chickweed [18]): 5 (Herbicidal rate of 90% or more (almost completely withered)); I: wild oat, herbicidal effect rating (wild oat [19]): 0 (Herbicidal rate of 5% or less (almost no effect)); N: redroot pigweed, herbicidal effect rating (redroot pigweed [20]): 5 (Herbicidal rate of 90% or more (almost completely withered)); Herbicidal effect on C: oval-leafed pondweed (grade 0-5) (oval-leafed pondweed): 0 (Herbicidal rate of 5% or less (almost no effect)); herbicidal effect on J: blackgrass (criteria 0-5) (blackgrass [21]): 3 (Herbicidal rate of 40% or more and less than 70%); herbicidal effect on K: Italian ryegrass (criteria 0-5) (Italian ryegrass [22]): 4 (Herbicidal rate of 70% or more and less than 90%); herbicidal effect on F: southern crabgrass (criteria 0-5) (southern crabgrass [23]): 5 (Herbicidal rate of 90% or more (almost completely withered)); J: blackgrass, herbicidal effect rating (blackgrass [24]): 1 (Herbicidal rate of 5% or more and less than 20%); R: persian speedwell, herbicidal effect rating (persian speedwell [25]): 5 (Herbicidal rate of 90% or more (almost completely withered)) |
